target: GABA-B receptor (Rattus norvegicus (Rat), UniProt O88871+Q9Z0U4); assay: [35S]GTPgS binding assay, rat cortical membranes, in presence of EC25 GABA; assay type: biochemical; conditions: rat brain cortex membranes; in presence of 1 μM GABA (EC25); positive allosteric modulation
Protocol: Preparation of Rat Brain Membranes for Native Receptor Assays
Membranes from rat brain cortex were prepared as described in detail by Olpe et al. and stored at concentrations of 1.66 mg/mL protein at −80° C. until required. (Olpe, H.-R, et al. Eur J Pharmacol 1990; 187: 27-38).
[^35S] GTPgS Binding Assay
The composition of the assay mixtures [in a final volume of 200 μL in 96-well U-bottom plates (Greiner) was as follows: 50 mM Tris-HCl buffer, pH 7.7, 10 mM MgCl2, 0.2 mM EGTA, 2 mM CaCl2, 100 mM NaCl, 20 µM guanosine 5′-diphosphate (Sigma), 0.3 nM [^35S]GTPgS (1250 Ci/mmol (PerkinElmer)), and the test compounds at increasing concentrations (from 10 nM up to […]), […] of rat cortical membranes, and a concentration of […], that has been observed in previous experiments to correspond to the EC25, a concentration that gives 25% of the maximal response of GABA. The samples were incubated at room temperature for 60 minutes on a shaker. The incubation was stopped by rapid vacuum filtration over glass-fiber filter plates (UniFilter-96 well, GF/B membrane plates, PerkinElmer) using a 96-well plate harvester (TOMTEK© Harvester). The UniFilter plate was washed five times with ice-cold wash buffer (50 mM Tris-HCl buffer, pH 7.7, 10 mM MgCl2, and 100 mM NaCl. After filtration the plate was dried for 90 minutes at 55° C. The plates were closed on the bottom with black sealing membranes, and liquid scintillation cocktail (35 μL, Betaplate Scint, PerkinElmer) was added to each well. After sealing the top of the plate, an additional incubation step of 90 minutes at room temperature followed before measuring the plate. The amount of membrane-bound [^35S]GTPgS was measured using a 96-well plate reader (Microbeta®, PerkinElmer). Nonspecific binding was measured in the presence of unlabeled 10 μM of GTPgS (Millipore) and without GABA. Basal binding was measured in the absence of 1 μM GABA, and maximal binding was measured in the presence of GABA using 1 mM GABA concentrations.
Data analysis. The concentration-response curves of compounds of the present disclosure in the presence of EC25 of GABA-B receptor agonist were generated using the GraphPad Prism® program (GraphPad Software, San Diego, Calif.). Data was normalized using basal binding as 0% and maximal binding as 100%. The curves were fitted by nonlinear regression allowing determination of EC50 values from sigmoidal dose-response curves. Each curve was performed using triplicate sample per date point and 10 concentrations.

Chain of GABA-B receptor (Q9Z0U4 17-960): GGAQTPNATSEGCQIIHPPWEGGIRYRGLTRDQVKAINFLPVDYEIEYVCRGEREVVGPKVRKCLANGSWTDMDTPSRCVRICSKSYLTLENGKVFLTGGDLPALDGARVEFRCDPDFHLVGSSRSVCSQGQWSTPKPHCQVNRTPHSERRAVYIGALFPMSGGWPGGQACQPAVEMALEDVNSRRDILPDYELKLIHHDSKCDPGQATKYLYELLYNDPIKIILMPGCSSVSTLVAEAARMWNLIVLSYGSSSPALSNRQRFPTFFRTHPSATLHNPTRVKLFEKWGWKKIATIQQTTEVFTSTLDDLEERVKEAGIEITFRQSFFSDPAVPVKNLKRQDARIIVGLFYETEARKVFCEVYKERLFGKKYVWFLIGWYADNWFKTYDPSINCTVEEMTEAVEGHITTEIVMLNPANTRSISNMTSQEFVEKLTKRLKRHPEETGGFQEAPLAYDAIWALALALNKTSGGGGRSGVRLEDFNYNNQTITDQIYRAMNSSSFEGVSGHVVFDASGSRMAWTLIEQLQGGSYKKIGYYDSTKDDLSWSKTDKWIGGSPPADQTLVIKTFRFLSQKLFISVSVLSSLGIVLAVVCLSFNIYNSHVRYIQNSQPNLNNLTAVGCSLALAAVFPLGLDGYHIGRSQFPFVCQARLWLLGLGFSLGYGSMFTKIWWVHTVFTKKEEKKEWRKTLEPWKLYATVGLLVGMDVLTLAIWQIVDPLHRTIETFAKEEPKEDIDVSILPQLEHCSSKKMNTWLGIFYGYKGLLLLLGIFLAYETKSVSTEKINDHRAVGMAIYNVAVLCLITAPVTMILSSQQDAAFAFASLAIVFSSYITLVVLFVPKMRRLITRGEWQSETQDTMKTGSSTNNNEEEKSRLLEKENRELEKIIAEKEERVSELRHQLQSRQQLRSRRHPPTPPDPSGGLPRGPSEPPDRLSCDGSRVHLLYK
Chain of GABA-B receptor (O88871 41-940): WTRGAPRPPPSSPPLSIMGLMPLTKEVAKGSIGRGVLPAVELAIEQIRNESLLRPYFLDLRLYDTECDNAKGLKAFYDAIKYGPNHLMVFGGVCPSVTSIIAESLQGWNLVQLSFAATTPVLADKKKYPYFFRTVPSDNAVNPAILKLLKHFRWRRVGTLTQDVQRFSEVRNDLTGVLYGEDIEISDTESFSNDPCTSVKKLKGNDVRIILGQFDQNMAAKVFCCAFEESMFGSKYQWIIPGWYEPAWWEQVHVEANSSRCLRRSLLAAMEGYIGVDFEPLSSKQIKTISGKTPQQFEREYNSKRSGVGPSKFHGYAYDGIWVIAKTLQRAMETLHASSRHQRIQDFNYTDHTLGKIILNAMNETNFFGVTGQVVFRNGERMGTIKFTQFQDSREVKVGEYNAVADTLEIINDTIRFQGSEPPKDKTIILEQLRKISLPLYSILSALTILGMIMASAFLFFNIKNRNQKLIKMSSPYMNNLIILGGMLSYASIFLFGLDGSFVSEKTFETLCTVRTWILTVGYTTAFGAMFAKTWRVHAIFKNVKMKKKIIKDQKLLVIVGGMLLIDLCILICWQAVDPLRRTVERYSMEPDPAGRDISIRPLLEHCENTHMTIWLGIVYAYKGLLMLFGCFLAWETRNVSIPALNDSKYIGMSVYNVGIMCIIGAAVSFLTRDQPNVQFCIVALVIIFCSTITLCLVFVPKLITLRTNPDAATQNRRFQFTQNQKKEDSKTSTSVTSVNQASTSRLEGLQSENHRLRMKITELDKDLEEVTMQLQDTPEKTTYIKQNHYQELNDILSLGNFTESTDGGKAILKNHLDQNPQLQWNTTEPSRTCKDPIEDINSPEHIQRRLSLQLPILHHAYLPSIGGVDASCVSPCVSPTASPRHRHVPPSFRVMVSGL

Structure (SMILES)	EC50 [nM]
Cc1cc(N2CCC3(CC2)COC3)n2nc(C(C)c3ccc(Cl)cc3)cc2n1 (stereo not drawn) [Example 2-9, 2-[1-(4-chlorophenyl)ethyl]-5-methyl-7-(2-oxa-7-azaspiro[3.5]non-7-yl)pyrazolo[1,5-a]pyrimidine]	604
Cc1cc(N2CCC[C@H](O)C2)n2nc(C(C)c3ccc(Cl)cc3)cc2n1 (stereo partly drawn) [Example 2-10, (3S)-1-{2-[1-(4-chlorophenyl)ethyl]-5-methylpyrazolo[1,5-a]pyrimidin-7-yl}piperidin-3-ol]	152
Cc1cc(N2CCC[C@@H](O)C2)n2nc(C(C)c3ccc(Cl)cc3)cc2n1 (stereo partly drawn) [Example 2-11, (3R)-1-{2-[1-(4-chlorophenyl)ethyl]-5-methylpyrazolo[1,5-a]pyrimidin-7-yl}piperidin-3-ol]	57
Cc1cc(N2CC3(CCOCC3)C2)n2nc(C(C)c3ccc(Cl)cc3)cc2n1 (stereo not drawn) [Example 2-13, 2-[1-(4-chlorophenyl)ethyl]-5-methyl-7-(7-oxa-2-azaspiro[3.5]non-2-yl)pyrazolo[1,5-a]pyrimidine]	446
CC[C@@H]1CN(c2cc(C)nc3cc(C(C)c4ccc(Cl)cc4)nn23)[C@H]1C(=O)O (stereo partly drawn) [Example 2-15, (2R,3R)-1-{2-[1-(4-chlorophenyl)ethyl]-5-methylpyrazolo[1,5-a]pyrimidin-7-yl}-3-ethylazetidine-2-carboxylic acid]	3930
Cc1cc(N2CCC3(CCC3O)C2)n2nc(C(C)c3ccc(Cl)cc3)cc2n1 (stereo not drawn) [Example 2-20, 6-{2-[1-(4-chlorophenyl)ethyl]-5-methylpyrazolo[1,5-a]pyrimidin-7-yl}-6-azaspiro[3.4]octan-1-ol]	93

The remaining lines, values ahead:

EC50 [nM]	Structure (SMILES)
185	Cc1cc(N2CCCC(F)(F)C2)n2nc(C(C)c3ccc(Cl)cc3)cc2n1 (stereo not drawn) [Example 2-7, 2-[1-(4-chlorophenyl)ethyl]-7-(3,3-difluoropiperidin-1-yl)-5-methylpyrazolo[1,5-a]pyrimidine]
71	Cc1cc(NC(C)(C)C)n2nc(C(C)c3ccc(Cl)cc3)cc2n1 (stereo not drawn) [Example 2-8, N-tert-butyl-2-[1-(4-chlorophenyl)ethyl]-5-methylpyrazolo[1,5-a]pyrimidin-7-amine]
2820	Cc1cc(N2CCC2)n2nc(C(C)c3ccc(Cl)cc3)cc2n1 (stereo not drawn) [Example 2-12, 7-(azetidin-1-yl)-2-[1-(4-chlorophenyl)ethyl]-5-methylpyrazolo[1,5-a]pyrimidine]
165	Cc1cc(NC2CC(F)C2)n2nc(C(C)c3ccc(Cl)cc3)cc2n1 (stereo not drawn) [Example 2-14, 2-[1-(4-chlorophenyl)ethyl]-N-(3-fluorocyclobutyl)-5-methylpyrazolo[1,5-a]pyrimidin-7-amine]
586	Cc1cc(NCC2CC(F)(F)C2)n2nc(C(C)c3ccc(Cl)cc3)cc2n1 (stereo not drawn) [Example 2-16, 2-[1-(4-chlorophenyl)ethyl]-N-[(3,3-difluorocyclobutyl)methyl]-5-methylpyrazolo[1,5-a]pyrimidin-7-amine]
2180	CC(=O)N[C@H]1CCN(c2cc(C)nc3cc(C(C)c4ccc(Cl)cc4)nn23)C1 (stereo partly drawn) [Example 2-17, N-[(3S)-1-{2-[1-(4-chlorophenyl)ethyl]-5-methylpyrazolo[1,5-a]pyrimidin-7-yl}pyrrolidin-3-yl]acetamide]
394	Cc1cc(NC2CC(F)(F)C2)n2nc(C(C)c3ccc(Cl)cc3)cc2n1 (stereo not drawn) [Example 2-21, 2-(1-(4-chlorophenyl)ethyl)-N-(3,3-difluorocyclobutyl)-5-methylpyrazolo[1,5-a]pyrimidin-7-amine]
70	CC[C@@H]1CCCCN1c1cc(C)nc2cc(C(C)c3ccc(Cl)cc3)nn12 (stereo partly drawn) [Example 2-22, 2-[1-(4-chlorophenyl)ethyl]-7-[(2R)-2-ethylpiperidin-1-yl]-5-methylpyrazolo[1,5-a]pyrimidine]
2730	CC(=O)N[C@@H]1CCN(c2cc(C)nc3cc(C(C)c4ccc(Cl)cc4)nn23)C1 (stereo partly drawn) [Example 2-23, N-[(3R)-1-{2-[1-(4-chlorophenyl)ethyl]-5-methylpyrazolo[1,5-a]pyrimidin-7-yl}pyrrolidin-3-yl]acetamide]

From patent US9828381B2, “Substituted pyrazolopyrimidines and method of use” (AbbVie Deutschland GmbH & Co. KG, priority 2015, dated 2017)
